Target: T1, PKC-ε (Mus musculus, UniProt P16054)
T1 construct: from tissue; host or cells: brain of C57B/6 male mice
T1 sequence (P16054 1-737): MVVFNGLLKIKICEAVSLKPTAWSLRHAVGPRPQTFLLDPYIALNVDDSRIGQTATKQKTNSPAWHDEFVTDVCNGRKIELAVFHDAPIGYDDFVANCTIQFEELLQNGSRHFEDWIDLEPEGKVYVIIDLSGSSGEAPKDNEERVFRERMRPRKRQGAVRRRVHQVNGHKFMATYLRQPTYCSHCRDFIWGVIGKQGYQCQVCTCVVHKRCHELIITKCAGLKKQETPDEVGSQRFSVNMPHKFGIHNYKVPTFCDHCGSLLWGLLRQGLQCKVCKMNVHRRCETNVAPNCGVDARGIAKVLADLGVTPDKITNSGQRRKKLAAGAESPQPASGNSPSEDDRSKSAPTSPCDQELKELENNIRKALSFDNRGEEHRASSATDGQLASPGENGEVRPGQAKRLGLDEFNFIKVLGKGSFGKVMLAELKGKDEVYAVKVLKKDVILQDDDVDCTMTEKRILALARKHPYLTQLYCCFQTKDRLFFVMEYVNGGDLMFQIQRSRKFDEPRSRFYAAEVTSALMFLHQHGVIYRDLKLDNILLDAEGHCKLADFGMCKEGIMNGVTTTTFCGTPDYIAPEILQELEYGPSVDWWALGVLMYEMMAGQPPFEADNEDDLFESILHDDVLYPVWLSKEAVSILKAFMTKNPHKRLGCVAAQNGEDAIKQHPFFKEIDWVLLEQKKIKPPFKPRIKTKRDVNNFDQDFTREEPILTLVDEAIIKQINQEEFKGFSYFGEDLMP
Assay: Total PKC (PKC-ε) level / downregulation in brain after i.v. bryostatin dosing regimens
Assay type: in vivo
Settings: mice
Procedure: FIGS. […] (A) Downregulation of brain PKCε in mice after intravenous administration of bryostatin at doses of 10 μg/m^2, 15 μg/m^2, and 25 μg/m^2 for 1-6 consecutive weeks. (B) Downregulation of brain PKCε in mice after intravenous administration of bryostatin at two different doses (i) 2×25+2 μg/m^2, and (ii) 25 μg/m^2. Dosing regimen is disclosed along the abscissa.
Mouse studies were performed using bryostatin-i in accordance with the protocol described below. The following metrics were used to evaluate dosing regimens: induction of brain postsynaptic anchoring protein PSD-95, upregulation of BDNF levels in brain, minimal downregulation of PKC-ε levels, and elevation of brain and plasma concentrations of bryostatin. Groups of 2-3 mice were formed and housed in an approved research animal facility. Water was give ad libitum. A first study involved three groups of mice with animals in each group dosed weekly for 1, 2, 3, or 6 consecutive weeks. Each group had its own control group containing the same number of mice. In this study, mice in the first, second and third groups received an intravenous (i.v.) injection of 10 μg/m^2, 15 μg/m^2, and 25 μg/m^2 dose of bryostatin respectively. For each dose, mice in that group received a single injection of bryostatin weekly for predetermined number of consecutive weeks. Following dosing, mice were sacrificed and the blood and brain of each animal was collected for further analysis.
Cells were harvested in homogenizing buffer containing 10 mM Tris-Cl (pH 7.4), 1 mM PMSF (phenylmethylsulfonyl fluoride), 1 mM EGTA, 1 mM EDTA. 50 mM NaF, and 20 μM leupeptin and were lysed by sonication. The homogenate was centrifuged at 100,000×g for 15 min at 4° C. to obtain the cytosolic fraction (supernatant) and membrane (pellet). The pellet was resuspended in the homogenizing buffer by sonication. Protein concentration was measured using the Coomassie Plus (Bradford) Protein Assay kit (Pierce, USA). Following quantification, 20 μg of protein from each sample was subjected to SDS-PAGE analysis in 4-20% gradient Tris-Glycine gel (Invitrogen, USA). The separated protein was then transferred to nitrocellulose membrane. The membrane was blocked with BSA at room temperature for 15 min and was incubated with primary antibody over night at 4° C. After the incubation, it was washed three times with TBS-T (Tris Buffered saline-Tween 20) and further incubated with alkaline phosphatase conjugated secondary antibody (Jackson Immunoresearch Laboratories. USA) at 1:10,000 dilution for 45 min. The membrane was finally washed three times with TBS-T and developed using the 1-step NBT-BCIP substrate (Pierce, USA). Western Blot was imaged in the Image Quant RT-ECL (GE Life Sciences, Piscataway, N.J.) and densitometric quantification was performed using the IMAL software (Blanchette Rockefeller Neurosciences institute, Morgantown, W. Va.). For translocation assays, PKC activation was represented as the percentage of total protein in the membrane (membrane/cytosol+membrane). […]
C57B/6 male mice weighing between 19-21 grams were obtained from Charles River and housed in cages, 1 mouse/cage in a vivarium at the Blanchette Rockefeller Neurosciences institute. Animals were allowed access to water ad libitum.
In these studies, bryostatin was administered intravenously (i.v.) by injection into the tail vein of a mouse. Stock solutions of bryostatin were prepared in dimethyl sulfoxide (DMSO). Prior to administration to a mouse, the stock DMSO solution of bryostatin was diluted to a predetermined concentration by dilution with phosphate buffered saline/saline (PBS/saline).
Three different dosing regimens (injection schedules) were compared. The dosing regimens tested were weekly dosing, dosing every other week (alternating weeks), and spaced or intermittent dosing. […]

SMILES: CCC/C=C/C=C/C(=O)O[C@H]1/C(=C/C(=O)OC)C[C@H]2C[C@H]([C@@H](C)O)OC(=O)C[C@H](O)C[C@@H]3C[C@H](OC(C)=O)C(C)(C)[C@](O)(C[C@@H]4C/C(=C/C(=O)OC)C[C@H](/C=C/C(C)(C)[C@]1(O)O2)O4)O3 [Bryostatin-1]
- PKC-ε downregulation (10 μg/m^2 weekly, total of 6 consecutive weeks): appeared to result in downregulation
- PKC-ε downregulation (25 μg/m^2, continued dosing, 1 on/1 off and 2 on/1 off regimens): additional downregulation occurred
- PKC downregulation (25 μg/m^2, rest intervals increased to three weeks (3 on/3 off)): significantly reduced PKC downregulation
- PKC-ε downregulation in brain (25 μg/m^2, three consecutive weekly doses, versus lower doses): did not produce more PKC-ε downregulation
- PKC (% of Control), total PKC level (cage 4: 25 μg/m^2 i.v. once weekly, 3 weeks, 24 h): 84.841 % of Control
- PKC (% of Control), total PKC level (cage 5: 25 μg/m^2 i.v., 3 on/3 off/3 on (9 weeks), 24 h): 78.2 % of Control
- PKC (% of Control), total PKC level (cage 6: 10 μg/m^2 i.v. once weekly, 3 weeks, 24 h): 95.197 % of Control
- PKC (% of Control), total PKC level (cage 8: 10 μg/m^2 i.v. once weekly, 6 weeks, 24 h): 80.441 % of Control
- PKC (% of Control), total PKC level (cage 9: 25 μg/m^2 i.v., alternating, weeks 1 and 3, 24 h): 63.02 % of Control
- PKC (% of Control), total PKC level (cage 10: 25 μg/m^2 i.v., alternating, weeks 1, 3, 5, 7, 9, 24 h): 59.11 % of Control
- PKC (% of Control), total PKC level (cage 11: 25 μg/m^2 i.v., weeks 1 and 2, collection week 3 (7 d delay)): 56.7 % of Control
- PKC (% of Control), total PKC level (cage 12: 25/20 μg/m^2 i.v., injections weeks 1, 2, 4, 6, 8, collection week 9 (7 d delay)): 49.92 % of Control
- PKC (% of Control), total PKC level (cage 18: 15 μg/m^2 i.v. once weekly, 3 weeks, 24 h): 66.430 % of Control
- PKC (% of Control), total PKC level (cage 22 (regimen not listed in Tables 2/3)): 89.206 % of Control
- PKC (% of Control), total PKC level (cage 24: 25 μg/m^2 i.v. once weekly, 2 weeks, 24 h): 96.723 % of Control
